Entries after “also recorded” stand apart in the source; their conditions may differ. Like-named read-outs stand apart in the source and are kept apart here.
Tests used:
[1] = Summary score for characterization of 38 core set hits; conditions: for D = Triple resistant: 2-point score, multiplex resistance (cadmium, MMS, H2O2); for S = Sum of Negative scores: human; for C = H2O2- & Cd-resistant: score, resistance to both H2O2 and cadmium
Method in brief: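 First, H2O2-resistance screen hits were characterized for longevity-related phenotypes, and each major one (multiplex resistance, FOXO3/NRF2 activation, mTOR down-regulation) received 2 points. Next, C. elegans lifespan extension was scored 0 to 2 from 4 to 6 trials. Finally, human-cell genotoxicity or toxicity subtracted a point.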

FOXO3 = experiment: qPCR analysis of FOXO3-regulated genes; type: cell-based, human; conditions: for Induction of at least two of five FOXO3-regulated genes (SOD2, GADD45A, CAT, DDB1, TXNIP): WI-38; for fold induction at 10 µM: Homo sapiens; for K = Sestrin induction: score
Method in brief: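 FOXO3 target-gene expression quantified by qPCR normalised to B2M, PPIA and GAPDH, in WI-38 cells after 24 h exposure to 10 μM compound. Some runs used cells first transfected 36 h with 10 nM FOXO3 or NRF2 siRNA and replated ~24 h before dosing.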

WI-38 cells = experiment: CdCl2 (cadmium) resistance assay; type: cell-based, human; conditions: for fold induction at 10 µM: Homo sapiens, 12 h, normalized ATP measurement; for Assay 4: H2O2- & Cd-resistant / Assay 2: Cadmium-resistant: YES/NO; for Assay 2: Cadmium-resistant: * indicates partial
Method in brief: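 Resistance to CdCl2 or MMS stress (12 h exposure) was scored in WI-38 fibroblasts pretreated with compound at 0.25–20 μM final, five doses, technical triplicates. MMS plates had compound added 24 h before MMS, after a shift to serum-free DMEM+2% BSA. Significance came from a global variance t-test over two independent runs.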

[2] = 24 h, Assay 10(m), at 10 uM, qPCR, read-out: Induction of FOXO3-regulated genes: TXNIP normalized fold-change
[3] = 10 μM, 24 hrs, WI-38 cells, qPCR, normalized to B2M, n = 4, read-out: TXNIP expression, normalized fold change (FOXO3-regulated gene)
[4] = WI-38 cells, 10 μM, 24 hrs, n=4, qPCR normalized by B2M, read-out: DDB1 Normalized fold change
[5] = WI-38 cells, 10 μM, 24 hrs, n=4, qPCR normalized by B2M, read-out: GADD45A Normalized fold change
[6] = WI-38 cells, 10 μM, 24 hrs, n=4, qPCR normalized by B2M, read-out: SESN1 Normalized fold change
[7] = fold change, qPCR, WI-38 cells, 10 μM, 24 hrs, read-out: Summary of effects on FOXO3-regulated genes: TXNIP
[8] = qPCR, WI-38 cells, 10 μM, n=4, 24 hrs, normalized by B2M, read-out: CAT Normalized fold change
[9] = qPCR, WI-38 cells, 10 μM, n=4, 24 hrs, normalized by B2M, read-out: SOD2 Normalized fold change
[10] = qPCR, WI-38 cells, 10 μM, n=4, 24 hrs, normalized by B2M, read-out: TXNIP Normalized fold change
[11] = Exp. 1, WI-38 cells, read-out: Exp. 1, under Cd2Cl2 stress treatment, at 10 uM (fold change)
[12] = Exp. 2, WI-38 cells, read-out: Exp. 2, under Cd2Cl2 stress treatment, at 10 uM (fold change)
[13] = WI-38 cells, 10 μM, both stressors
[14] = score in summary of 38 core set hits
[15] = 24 h, Assay 10(m), at 10 uM, qPCR, read-out: Induction of FOXO3-regulated genes: CAT normalized fold-change
[16] = 24 h, Assay 10(m), at 10 uM, qPCR, read-out: Induction of FOXO3-regulated genes: GADD45A normalized fold-change
[17] = 24 h, Assay 10(m), at 10 uM, qPCR, read-out: Induction of FOXO3-regulated genes: SESN1 normalized fold-change
[18] = 10 μM, 24 hrs, WI-38 cells, qPCR, normalized to B2M, n = 4, read-out: CAT expression, normalized fold change (FOXO3-regulated gene)
[19] = 10 μM, 24 hrs, WI-38 cells, qPCR, normalized to B2M, n = 4, read-out: GADD45A expression, normalized fold change (FOXO3-regulated gene)
[20] = 10 μM, 24 hrs, WI-38 cells, qPCR, normalized to B2M, n = 4, read-out: SESN1 expression, normalized fold change (FOXO3-regulated gene)
[21] = fold change, qPCR, WI-38 cells, 10 μM, 24 hrs, read-out: Summary of effects on FOXO3-regulated genes: CAT
[22] = fold change, qPCR, WI-38 cells, 10 μM, 24 hrs, read-out: Summary of effects on FOXO3-regulated genes: GADD45A
[23] = fold change, qPCR, WI-38 cells, 10 μM, 24 hrs, read-out: Summary of effects on FOXO3-regulated genes: SESN1
[24] = WI-38, 24 h, read-out: SESN1 expression

SMILES | D = Triple resistant [1] | S = Sum of Negative scores [1] | C = H2O2- & Cd-resistant [1] | Induction of at least two of five FOXO3-regulated genes (SOD2, GADD45A, CAT, DDB1, TXNIP) (FOXO3; 10 μM, 24 hrs) | E = Potential FOXO3 Activation (FOXO3; 2-point score) | fold induction at 10 µM (FOXO3; [4]) | fold induction at 10 µM (FOXO3; [5]) | fold induction at 10 µM (FOXO3; [6]) | fold induction at 10 µM (FOXO3; [8]) | fold induction at 10 µM (FOXO3; [9]) | fold induction at 10 µM (FOXO3; [10]) | K = Sestrin induction (FOXO3) | E = Potential FOXO3 Activation (FOXO3; summary score) | fold induction at 10 µM (WI-38 cells; [11]) | fold induction at 10 µM (WI-38 cells; [12]) | Assay 4: H2O2- & Cd-resistant (WI-38 cells) | Assay 2: Cadmium-resistant (WI-38 cells) | A = Cadmium resistant (WI-38 cells; [14]) | A = Cadmium resistant (WI-38 cells; summary score) | C = H2O2- & Cd-resistant (WI-38 cells; summary score) | further results
Oc1ncnc2sc3c(c12)CCC3 [O14] | 0 | 0 | 1 | significant induction | 0 | 1.08 | 1.2 | 1.14 | 1.03 | 1.27 | 1.39 | 0 | 0 | 2.2 | 2.69 | YES | YES | 1 | 1 | 1 | fold induction at 10 µM (FOXO3; 24 h, Assay 10(m), at 10 uM, qPCR, read-out: Induction of FOXO3-regulated genes: SOD2 normalized fold-change): 1.06; fold induction at 10 µM (FOXO3; [2]): 1.27; fold induction at 10 µM (FOXO3; [3]): 1.39; fold induction at 10 µM (FOXO3; [7]): 1.39; CdCl2-resistant (WI-38 cells): YES; H2O2- & CdCl2-resistant (WI-38 cells): YES; CdCl2-resistant (WI-38 cells; WI-38 cells, 10 μM): YES; H2O2- & CdCl2-resistant (WI-38 cells; [13]): YES
CCCN1C/C(=C\c2ccc(F)cc2)C(=O)/C(=C/c2ccc(F)cc2)C1 [O15] | 0 | 0 | 0 | significant induction; also recorded: significant, induction | 0 | 1.17 | 2.71 | 0.679 | 1.28 | 1.05 | 0.219 | 0 | 0 | 0.18 | 0.57 | YES | YES | 0 | 1 | 1 | fold induction at 10 µM (FOXO3; [15]): 1.28; fold induction at 10 µM (FOXO3; [16]): 2.72; fold induction at 10 µM (FOXO3; [17]): 0.8; fold induction at 10 µM (FOXO3; [2]): 0.22; fold induction at 10 µM (FOXO3; [18]): 1.28; fold induction at 10 µM (FOXO3; [19]): 2.72; fold induction at 10 µM (FOXO3; [20]): 0.8; fold induction at 10 µM (FOXO3; [3]): 0.22; fold induction at 10 µM (FOXO3; [21]): 1.28; fold induction at 10 µM (FOXO3; [22]): 2.72; fold induction at 10 µM (FOXO3; [23]): 0.8; fold induction at 10 µM (FOXO3; [7]): 0.22
[O-][n+]1onc2c3nsnc3c(Br)cc21 [O17] | 0 | 0 | 0 | – | 0 | 1.04 | 0.846 | 1.11 | 1.11 | 0.997 | 0.801 | 0 | 0 | 0.95 | 1.35 | – | – | 0 | 0 | 0 | fold induction at 10 µM (FOXO3; [16]): 0.85; fold induction at 10 µM (FOXO3; [19]): 0.85; fold induction at 10 µM (FOXO3; [22]): 0.85
Cc1cc(C)c(C(=O)/C=C/c2ccccc2F)c(O)n1 [O18] | 0 | 0 | 0 | – | 0 | 1.33 | 0.861 | 1.06 | 1.47 | 1.04 | 0.297 | 0 | 0 | 1.5 | 1.24 | YES | YES | 0 | 1 | 1 | fold induction at 10 µM (FOXO3; [2]): 0.3; fold induction at 10 µM (FOXO3; [3]): 0.3; fold induction at 10 µM (FOXO3; [7]): 0.3
COC(=O)CCc1sc2c(c1[N+](=O)[O-])NC(=O)CCC2 [O20] | 0 | 0 | 1 | significant induction; also recorded: significant, induction | 0 | 1.25 | 1.04 | 1.73 | 1.35 | 1.09 | 1.12 | 1 | 0 | 6.37 | 4 | YES | YES | 1 | 1 | 1 | fold induction at 10 µM (FOXO3; [15]): 1.35; fold induction at 10 µM (FOXO3; 24 h, Assay 10(m), at 10 uM, qPCR, read-out: Induction of FOXO3-regulated genes: DDB1 normalized fold-change): 1.25; fold induction at 10 µM (FOXO3; [17]): 1.73; fold induction at 10 µM (FOXO3; [24]): > 1.5; fold induction at 10 µM (FOXO3; [18]): 1.35; fold induction at 10 µM (FOXO3; 10 μM, 24 hrs, WI-38 cells, qPCR, normalized to B2M, n = 4, read-out: DDB1 expression, normalized fold change (FOXO3-regulated gene)): 1.25; fold induction at 10 µM (FOXO3; [20]): 1.73; fold induction at 10 µM (FOXO3; [21]): 1.35; fold induction at 10 µM (FOXO3; fold change, qPCR, WI-38 cells, 10 μM, 24 hrs, read-out: Summary of effects on FOXO3-regulated genes: DDB1): 1.25; fold induction at 10 µM (FOXO3; [23]): 1.73; CdCl2-resistant (WI-38 cells): YES; H2O2- & CdCl2-resistant (WI-38 cells): YES; CdCl2-resistant (WI-38 cells; WI-38 cells, 10 μM): YES; H2O2- & CdCl2-resistant (WI-38 cells; [13]): YES
COc1ccc(/C=C2\SC(=N)N(c3nccs3)C2=O)cc1 [O21] | 0 | 2 | 0 | – | 0 | 1.45 | 2.06 | 1.88 | 1.3 | 1.12 | 0.9 | 1 | 0 | 0.03 | 0.04 | – | – | 0 | 0 | 0 | fold induction at 10 µM (FOXO3; [17]): 1.88; fold induction at 10 µM (FOXO3; [24]): > 1.5; fold induction at 10 µM (FOXO3; [20]): 1.88; fold induction at 10 µM (FOXO3; [23]): 1.88
